For this assay, the target named is NK1 receptor (Homo sapiens, UniProt P25103). As to the kind of experiment: NK1 receptor binding: inhibition of Substance P binding, Ki by Chang-Prusoff equation. The settings on record: affinity for the NK1 receptor. The source says:
The in vitro and in vivo NK1, NK2 and NK3 activities of the compounds of Formula I can be determined by various procedures known in the art, such as a test for their ability to inhibit the activity of the NK1 agonist Substance P. The percent inhibition of neurokinin agonist activity is the difference between the percent of maximum specific binding (“MSB”) and 100%. The percent of MSB is defined by the following equation, wherein “dpm” represents “disintegrations per minute”:
[formula] The concentration at which the compound produces 50% inhibition of binding is then used to determine an inhibition constant (“Ki”) using the Chang-Prusoff equation.
The activities (potencies) for the compounds of the invention are determined by measuring their Ki values. […] Even more preferred are compounds having average Ki values of from 0.1 nM to about 5 nM for the NK1 receptor. Especially preferred compounds have […], average Ki values of from 0.1 nM to about 1 nM. Even more especially preferred compounds have NK1 average Ki values of from 0.1 nM to about 0.3 nM.
Sequence of NK1 receptor (P25103 whole entry, species assumed): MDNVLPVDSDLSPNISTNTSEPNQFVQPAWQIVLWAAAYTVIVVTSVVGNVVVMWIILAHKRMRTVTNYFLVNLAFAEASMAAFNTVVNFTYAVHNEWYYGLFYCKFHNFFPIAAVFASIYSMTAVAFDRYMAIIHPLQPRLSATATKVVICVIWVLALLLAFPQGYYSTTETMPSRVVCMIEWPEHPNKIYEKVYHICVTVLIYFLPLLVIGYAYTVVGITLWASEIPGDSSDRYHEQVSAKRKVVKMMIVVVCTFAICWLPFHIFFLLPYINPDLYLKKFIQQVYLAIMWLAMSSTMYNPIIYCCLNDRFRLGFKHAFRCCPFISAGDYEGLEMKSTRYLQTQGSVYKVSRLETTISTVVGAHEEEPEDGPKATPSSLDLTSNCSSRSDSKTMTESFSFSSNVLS
Consider `C/C(=N\O)[C@]1(n2cn[nH]c2=O)CC[C@@](CO[C@H](C)c2cc(C(F)(F)F)cc(C(F)(F)F)c2)(c2ccccc2)NC1` [Compound 54], for which the inhibition constant Ki (commonly a measure of affinity in units of concentration, obtained from inhibition or displacement) was found to be 120 pM. With `C[C@@H](OC[C@@]1(c2ccccc2)CC[C@](C#N)(N2CCOC2=O)CN1)c1cc(C(F)(F)F)cc(C(F)(F)F)c1` [Compound 2], the affinity corresponds to a Ki of 120 pM. Compound `COC[C@]1(N2CC(=O)NC2=O)CC[C@@](CO[C@H](C)c2cc(C(F)(F)F)cc(C(F)(F)F)c2)(c2ccccc2)NC1` [Compound 20] came in with a Ki of 110 pM. Next, `CC(=O)C[C@]1(n2cn[nH]c2=O)CC[C@@](CO[C@H](C)c2cc(C(F)(F)F)cc(C(F)(F)F)c2)(c2ccccc2)NC1` [Compound 30]: 540 pM; `C[C@@H](OC[C@@]1(c2ccccc2)CC[C@@](C(N)=O)(n2cnnc2)CN1)c1cc(C(F)(F)F)cc(C(F)(F)F)c1` [Compound 10]: 100 pM. In turn, `C[C@@H](OC[C@@]1(c2ccccc2)CC[C@](C#N)(N2CCC2=O)CN1)c1cc(C(F)(F)F)cc(C(F)(F)F)c1` [Compound 9] had a Ki of 180 pM. In turn, `COC[C@@]1(n2cnnc2)CC[C@@](CO[C@H](C)c2cc(C(F)(F)F)cc(C(F)(F)F)c2)(c2ccccc2)NC1` [Compound 14] gave a Ki of 100 pM.

`C[C@@H](OC[C@@]1(c2ccccc2)CC[C@@](CO)(n2cnnc2)CN1)c1cc(C(F)(F)F)cc(C(F)(F)F)c1` [Compound 12] had a Ki of 50 pM. `C[C@@H](OC[C@@]1(c2ccccc2)CC[C@](CO)(n2cn[nH]c2=O)CN1)c1cc(C(F)(F)F)cc(C(F)(F)F)c1` [Compound 23]: the Ki was 120 pM. In turn, `C[C@@H](OC[C@@]1(c2ccccc2)CC[C@](C#N)(n2cn[nH]c2=O)CN1)c1cc(C(F)(F)F)cc(C(F)(F)F)c1` [Compound 42] displayed a Ki of 280 pM. For `C[C@@H](OC[C@@]1(c2ccccc2)CC[C@](CC(N)=O)(n2cn[nH]c2=O)CN1)c1cc(C(F)(F)F)cc(C(F)(F)F)c1` [Compound 29] the value was 110 pM; for `CCC(=O)[C@]1(n2cn[nH]c2=O)CC[C@@](CO[C@H](C)c2cc(C(F)(F)F)cc(C(F)(F)F)c2)(c2ccccc2)NC1` [Compound 19], 100 pM. On to `CCNC(=O)C[C@]1(n2cn[nH]c2=O)CC[C@@](CO[C@H](C)c2cc(C(F)(F)F)cc(C(F)(F)F)c2)(c2ccccc2)NC1` [Compound 16], for which the affinity, expressed as Ki, was 130 pM.

Source of the values: patent US8754216B2, “NK1 antagonists” (OPKO Health, Inc., priority 2004, dated 2014).
